Ten compounds from PubChem BioAssay (NCI) can be followed below.

Some test systems named below: A549 NSCLC; SF-295 CNS; KM12 colon; SF-268 CNS; EKVX NSCLC; SW-620 colon; SNB-75 CNS; HCC-2998 colon; RXF 393 renal; BT-549 breast; PC-3 prostate; HCT-116 colon; CAKI-1 renal; A498 renal; SK-MEL-5 melanoma; MDA-N.
What all share (test): DTP human tumour cell line panel, 48 h

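1) Cells in 96-well plates. 2) Compound, 48 h, 5 concentrations. 3) Linear interpolation between surrounding doses. 4) Unreached endpoint = highest concentration. TGI is the concentration that stops growth completely.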 Where only a bound is given, the exact number is not on record here.

As usually defined, the TGI is the concentration at which net growth stops. A high value points to lower sensitivity of the cells. `Cc1cn(C2CC(ON3C(=O)c4ccccc4C3=O)C(CO)O2)c(=O)[nH]c1=O` (configuration not stated): the TGI in the experiment on A549 NSCLC, with SF-295 CNS, with KM12 colon, with SF-268 CNS, in the experiment on EKVX NSCLC and with SW-620 colon was above 10 µM each time. Further, the TGI with SNB-75 CNS, with HCC-2998 colon, in the experiment on RXF 393 renal, in the experiment on BT-549 breast, in the experiment on PC-3 prostate and with HCT-116 colon was above 10 µM in each case.
Consider `COc1ccc2c3c1O[C@H]1C(O)CCC4(O)[C@@H](C2)NCC[C@]314` (some centres not stated), for which the TGI in the experiment with A549 NSCLC, with CAKI-1 renal, with A498 renal, in the experiment on SK-MEL-5 melanoma, in the experiment with SF-295 CNS and with KM12 colon was above 100 µM each time. For the same compound, the TGI in the experiment with SF-268 CNS, in the experiment with EKVX NSCLC, in the experiment with SW-620 colon, in the experiment on BT-549 breast, in the experiment with PC-3 prostate and with HCT-116 colon was above 100 µM throughout. The compound further showed a TGI with MDA-N above 100 µM.
In the case of `Cc1cccc2c1Oc1cc(Cl)ccc1C2NC(=O)CCN1CCOCC1` (configuration not stated), the TGI with A549 NSCLC, in the experiment on SK-MEL-5 melanoma, in the experiment with SF-295 CNS, in the experiment with KM12 colon, in the experiment with SF-268 CNS and with EKVX NSCLC was above 100 µM each time. Moreover, the total growth inhibition concentration (TGI) in the experiment with SW-620 colon, with SNB-75 CNS, in the experiment on HCC-2998 colon, in the experiment with BT-549 breast, with PC-3 prostate and in the experiment on HCT-116 colon was above 100 µM each time. In the experiment with MDA-N, this compound showed a TGI above 100 µM.
As for `N#Cc1sc2nc(/C=C3/C=CC=CC3=O)c(O)n2c1N`, the TGI with A549 NSCLC, in the experiment with CAKI-1 renal, with A498 renal, in the experiment with SK-MEL-5 melanoma, in the experiment with SF-295 CNS and with KM12 colon was above 100 µM each time. Further, the TGI in the experiment with SF-268 CNS, in the experiment on EKVX NSCLC, in the experiment with SW-620 colon, in the experiment with SNB-75 CNS, in the experiment with HCC-2998 colon and in the experiment with RXF 393 renal was above 100 µM each time. Moreover, the TGI in the experiment with PC-3 prostate, with HCT-116 colon and in the experiment on MDA-N was above 100 µM throughout.
As for `CO[C@H]1[C@@H](O)[C@@H](C)O[C@@H](O[C@H]2CC[C@@]3(C)[C@H](CC[C@@H]4[C@@H]3CC[C@]3(C)[C@@H](C5=CC(=O)OC5)[C@@H](OC(C)=O)C[C@]43O)C2)[C@@H]1O`, the TGI with A549 NSCLC amounted to 0.0241 µM; with CAKI-1 renal it was 0.0719 µM; in the experiment with A498 renal it was 1.27 µM; in the experiment on SK-MEL-5 melanoma it was 0.201 µM; in the experiment with SF-295 CNS it was 0.55 µM; in the experiment on KM12 colon, 0.592 µM. The TGI was 0.0855 µM in the experiment on SF-268 CNS; 0.0568 µM with EKVX NSCLC; above 50 µM in the experiment on SW-620 colon; 0.332 µM with SNB-75 CNS; 0.824 µM with HCC-2998 colon; 0.0523 µM in the experiment with RXF 393 renal. For the same compound, the TGI stood at 0.161 µM with BT-549 breast, 0.113 µM with PC-3 prostate and 0.109 µM with HCT-116 colon.
On to `CCC1c2[nH]c3ccccc3c2C[C@H]2C(=O)NC(COC(C)(C)C)C(=O)N12` (some centres not stated), for which the TGI with A549 NSCLC is above 100 µM; in the experiment on CAKI-1 renal it was above 100 µM; in the experiment on A498 renal, above 100 µM; with SK-MEL-5 melanoma, 93.3 µM; in the experiment with SF-295 CNS, 65.4 µM; with KM12 colon, above 100 µM. For the same compound, the TGI in the experiment with SF-268 CNS was above 100 µM; in the experiment with EKVX NSCLC, above 100 µM; with SW-620 colon it was above 100 µM; in the experiment with SNB-75 CNS it was 78.6 µM; in the experiment with RXF 393 renal, above 100 µM; in the experiment on BT-549 breast it was above 100 µM. The TGI in the experiment with PC-3 prostate was 91.9 µM; with HCT-116 colon, above 100 µM.
For the compound `O=C(C[n+]1ccccc1)NNC(=O)/C(=C/c1ccc2c(c1)OCO2)NC(=O)c1ccccc1`, the TGI with A549 NSCLC was above 100 µM; with CAKI-1 renal it was above 100 µM; in the experiment with A498 renal, above 100 µM; in the experiment with SK-MEL-5 melanoma it was 98.4 µM; with SF-295 CNS it was above 100 µM; with KM12 colon, above 100 µM. Besides, the total growth inhibition concentration (TGI) in the experiment on SF-268 CNS was above 100 µM; in the experiment on EKVX NSCLC it was above 100 µM; with SW-620 colon it was above 100 µM; in the experiment on SNB-75 CNS, above 95.9 µM; in the experiment with HCC-2998 colon, above 100 µM; with RXF 393 renal, above 83.9 µM. The compound further gave a total growth inhibition concentration (TGI) with HCT-116 colon above 100 µM.
As for `CCOC(=O)C1(C(=O)OCC)CN(CC)CN(c2ccccc2)C1`, the TGI in the experiment on A549 NSCLC was 49.3 µM; in the experiment on CAKI-1 renal, 31.8 µM; in the experiment with A498 renal, above 100 µM; in the experiment on SK-MEL-5 melanoma it was above 100 µM; in the experiment on SF-295 CNS, above 100 µM; with KM12 colon, above 100 µM. Besides, the total growth inhibition concentration (TGI) with SF-268 CNS was above 100 µM; in the experiment on EKVX NSCLC, 34 µM; in the experiment on SW-620 colon it was above 100 µM; in the experiment with SNB-75 CNS, 39.3 µM; with HCC-2998 colon it was 28.9 µM; in the experiment on RXF 393 renal, 31.7 µM. Also, the TGI in the experiment with BT-549 breast was 86.6 µM; with HCT-116 colon it was above 100 µM; in the experiment on MDA-N it was 87.9 µM.
Consider `CC12CCC(C(=O)OC1=O)C2(C)C` (configuration not stated), for which the TGI in the experiment with A498 renal, in the experiment on SF-295 CNS, in the experiment with KM12 colon, with SF-268 CNS, in the experiment with SW-620 colon and in the experiment with SNB-75 CNS was above 100 µM in each case. The TGI with HCC-2998 colon, in the experiment with RXF 393 renal, in the experiment on PC-3 prostate, in the experiment with HCT-116 colon and with MDA-N was above 100 µM throughout.
For `CC(C)CC1[C@@H](OCc2ccccc2)COS(=O)N1Cc1ccccc1` (some centres not stated), the TGI is above 100 µM with A549 NSCLC; above 100 µM in the experiment on SK-MEL-5 melanoma; above 100 µM with SF-295 CNS; 96.2 µM with KM12 colon; above 100 µM in the experiment with SF-268 CNS; above 100 µM with EKVX NSCLC. For the same compound, the TGI was above 100 µM with SW-620 colon; 70.7 µM in the experiment on SNB-75 CNS; above 100 µM in the experiment with PC-3 prostate; above 100 µM in the experiment with HCT-116 colon; above 100 µM in the experiment on MDA-N.
